According to patent US5814634A, “Alkylenediamine derivative anti-ulcer drug and antibacterial drug” (Shiseido Co. Ltd., priority 1996, dated 1998):

Legend:
[1] = system: stress ulcer; test: WIS: Restraint and Water Immersion Stress-Induced Ulcer Inhibition Test; assay type: in vivo, rat (male Crj:SD or Slc:SD); conditions: 100 mg/kg oral, rats, water immersion stress 7 hours
Method: WIS: Restraint and Water Immersion Stress-Induced Ulcer Inhibition Test
The degree of inhibition of the stress ulcer formation is tested.
Male Crj:SD or Slc:SD rats (6 to 7-week-old) were fasted overnight, but allowed free access to water. Each group has 5 to 8 of these rats. The sample compound was dissolved or suspended in an aqueous solution of 0.3% sodium carboxymethylcellulose or 0.05% Tween 80 and then was orally administered (100 mg/10 ml/kg). To a control group, the vehicle was administered. 10 minutes later, the rats were placed in a stress cage and immersed to the level of xipfoid process in a water bath (21° C.) for 7 hours. At the end of the stress, the rats were sacrificed by inhalation of ether or carbon dioxide. Then, the stomach of each was removed, inflated by injecting 10 ml of 5% formalin neutral buffer solution, and immersed in 1% formalin neutral buffer solution for 30 minutes or more to be fixed. The stomach was incised along the greater curvature and then the length of each erosion in the glandular portion was determined under dissecting microscope. The sum of the length of erosions per stomach was defined as ulcer index (UI).
(§1) The effect obtained when 100 mg/kg of the sample compound had been administered was expressed as ulcer formation inhibitory rate (%) as follows: [formula] VOL, TAO: Acid Secretion Inhibition Test In Vivo i) Meaning

[2] = system: acid secretion in vivo; test: VOL, TAO: Acid Secretion Inhibition Test In Vivo; parameters: species or system rat (male Crj:Donryu); conditions: 100 mg/kg oral, pylorus-ligated rats, histamine 30 mg/kg s.c.
Method: as §1
Inhibitory effect on acid secretion in vivo is confirmed.
Male Crj:Donryu rats (7-week-old) were fasted overnight but allowed free access to water. In each group, 8 to 10 of these rats were used under urethane anesthesia (1.25 g/kg). The sample compound dissolved or suspended in an aqueous solution of 0.5% sodium carboxymethylcellulose or 0.05% Tween 80 was orally administered (100 mg/10 ml/kg). 30 minutes later, the abdomen of each was incised and the pylorus was ligated. 30 minutes after the ligation, 30 mg/kg of histamine dissolved in physiological saline was subcutaneously administered and, 3 hours thereafter, the rat was sacrificed with carbon dioxide. Immediately thereafter, each stomach was removed and the gastric contents were collected and each volume was determined. The total acid output was determined by titration of the gastric juice with 0.1N NaOH.
(§2) With respect to the gastric juice volume (VOL) and the total acid output (TAO), the effects obtained when 100 mg/kg of the sample compound had been administered were expressed as their respective inhibitory rates (%) as follows: [formula] CAP: Acid Secretion Inhibition Test In Vitro i) Meaning

[3] = system: isolated gastric fundic gland; test: CAP: Acid Secretion Inhibition Test In Vitro ([14C]-aminopyrine uptake); assay type: cell-based, rabbit (male Japanese White); conditions: Oryctolagus cuniculus, 40 min; 10^-5 M compound, 10^-5 M histamine, rabbit isolated gastric fundic gland, 37° C., 40 minutes; read-out: CAP: acid secretion inhibitory rate
Method: as §2
The acid secretion inhibitory activity in a cell level is studied. It can also be used for studying the mechanism of the effect.
ii-a) Preparation of isolated gastric fundus gland suspension
First, an isolated gastric fundic gland sample was prepared. […] Immediately thereafter, the stomach was removed and, after its pyloric and cardiac antrum were severed, incised along its greater curvature into two sheets. The gastric contents adhering to the mucosal surface was washed out with ice-cooled PBS (-) and then carefully washed therein. The gastric wall was spread on a cork board with its mucosal surface facing up and the feed and mucus thereon were completely removed with sterile gauze. The mucosa was separated therefrom by a spatula and then collected in ice-cooled PBS (-). After being washed twice with PBS (-), the mucosa was minced into 2-3 mm^3 pieces by scissors. These pieces were further washed twice with a nutrient solution. The nutrient solution comprises 132.4 mM of NaCl, 5.4 mM of KCl, 5 mM of Na2 HPO4.12H2 O, 1 mM of NaH2 PO4.2H2 O, 1.2 mM of MgSO4, 1 mM of CaCl2, 25 mM of HEPES, 2 mg/ml of glucose, and 1 mg/ml of BSA. Into 70 ml of the nutrient solution containing 1 mg/ml of collagenase, minced mucosal pieces were dispersed and intensely stirred in a conical flask with a stirrer at 37° C. for 40 to 60 minutes. During this period, 100% O2 was sprayed on the nutrient solution surface and the pH was appropriately measured such that it was immediately adjusted to pH 7.4, when the value was therebelow, with a base. The nutrient solution was added to the reaction solution so as to attain the total amount of about 200 ml. After being filtered through a mesh, the suspension was divisionally introduced into 50 ml centrifuge tubes and left for 15 minutes such that gastric fundic gland was deposited. The supernatant was repeatedly removed by an aspirator, dispersed in the nutrient solution, and then left such that the gastric fundic gland was washed three times. At this time, without using a pipette, the suspension was alternately introduced into two centrifuge tubes so as to effect dispersion. The number of cells was counted under microscope and adjusted to 1.6×10^6 cells/ml.
ii-b) [^14 C]-aminopyrine uptake test
Then, [^14 C]-aminopyrine uptake test was performed. After an Eppendorf tube was weighed, 10 μl (final concentration: 10^-5 M) of histamine dissolved in the above-mentioned nutrient solution, 10 μl (final concentration: 10^-5 M) of the test compound dissolved in DMSO, and 10 μl (final concentration: 0.05 μCi/ml) of [^14 C]-aminopyrine diluted with the nutrient solution were introduced therein and then 970 μl of the isolated gastric fundic gland suspension prepared above was added thereto. Subsequently, this mixture was shaken at 37° C. for 40 minutes at 125 cycles/minute. After being centrifuged for 30 minutes, 200 μl of its supernatant was collected into a mini-vial, while the rest was removed by an aspirator. The gland pellet was completely dried as the tube with its lid being opened was kept for one night in a drying oven at 80° C. and then the lid was closed and the weight was determined at room temperature. Then 100 μl of 1N KOH was added thereto and the tube with its lid being closed was treated at 60° C. for 1 to 2 hours so as to dissolve the pellet. Then, the contents thereof were transferred to a mini-vial. Into the mini-vial containing the supernatant or gland pellet, 4 ml of Atomlite™ was added and then the radioactivity was measured by a liquid scintillation counter. […]

[4] = system: Male Slc:ICR mice; parameters: species or system mouse (male Slc:ICR); conditions: mouse, in vivo
Method: AT: Single Dose Toxicity Pretest
Male Slc:ICR mice (5-week-old) were used. Each group has 3 to 5 mice and each mouse was fasted, but allowed free access to water, for 4 to 5 hours from 9 a.m. in the test day. Then, 2,000 mg/10 ml/kg of the sample compound dissolved or suspended in an aqueous solution of 0.5% sodium carboxymethyl cellulose was orally administered thereto. To a control, only the vehicle was administered. […] The body weight was measured before and after the fasting as well as at the same time everyday. The dead animals were immediately subjected to autopsy and their organs were observed microscopically. Also, the living animals were sacrificed with ether or carbon dioxide one week after the administration and then their organs were observed microscopically.
The toxicity at the single dose of 2,000 mg/kg of the sample compound was expressed as being classified into 5 levels.
5: Mortality rate is 0%; no toxicity is found at all both in behavior and organs.
4: Mortality rate is 0%; while no toxicity is found in organs, slight toxicity is observed in behavior and body weight increase.
3: While there is a dead animal (though not all the animals are dead), no toxicity is found in organs.
2: Regardless of whether there is a dead animal or not, toxicity is found in organs.
1: All the animals are dead.

[5] = system: gastric mucosa; test: PD: Gastric Mucosal Integrity Test (gastric mucosal potential difference); assay type: in vivo, rat (male Crj:SD); parameters: key: 5: Same as the control with no recognizable damage at all.; 4: Though a slight PD-decreasing tendency suggesting a slight possibility of mucosal damage is found, there is no problem.; 3: Though a weak decrease in PD and a possibility of a weak mucosal damage is recognized, there is no substantial problem.; 2: Medium degree of decrease in PD is found and a mucosal damage is recognized.; 1: Heavy degree of decrease in PD is found and a remarkable mucosal damage is recognized; conditions: 100 mg/kg into chamber, rats, 60 minutes
Method: PD: Gastric Mucosal Integrity Test
In this case, since the sample compound has a necrotizing effect, it is inappropriate as an anti-ulcer medicament.
Therefore, the gastric mucosal potential difference (PD), which reflects the integrity of the gastric mucosa, is measured so as to confirm that the sample compound has no damaging effect on gastric mucosa, which is toxicity at gastric mucosal level.
Male Crj:SD rats (7 to 8-week-old) were fasted overnight, but allowed free access to water, and then, under urethane anesthesia (1.25 g/kg, i.p.), fixed to a cork board on its back. The abdomen of each rat was incised, and a small incision was made in the forestomach. Then, the inside of the stomach was washed with physiological saline heated at 37° C. From the forestomach, along the greater curvature thereof, the stomach was incised without damaging blood vessels. After the height of the cork board was adjusted on a jack, the stomach was mounted on ex vivo chamber. The area of the gastric mucosa exposed to the inside of this chamber was 2.5 cm^2. The inside of the chamber was perfused with physiological saline warmed at 37° C. by micro tube pump. By using an agar bridge containing 3M KCl, the potential difference between the chamber and the abdominal cavity was measured by a PD meter. Here, the rectal temperature was measured to control the body temperature during the experiment. After the PD was sufficiently stabilized, the perfusate was stopped and then 100 mg/10 ml/kg of the sample compound dissolved or suspended in an aqueous solution of 0.5% sodium carboxymethyl cellulose or 0.05% Tween 80 was administered into the chamber, while PD was recorded for 60 minutes. To a control, the vehicle was administered.
The change in PD during 60 minutes after the administration of 100 mg/kg of the sample compound was collectively studied and, with reference to the positive control, classified into 5 levels as follows:
5: Same as the control with no recognizable damage at all.
3: Though a weak decrease in PD and a possibility of a weak mucosal damage is recognized, there is no substantial problem.
2: Medium degree of decrease in PD is found and a mucosal damage is recognized.
1: Heavy degree of decrease in PD is found and a remarkable mucosal damage is recognized.

[6] = in vitro; conditions: rabbit, gastric mucosal cells
[7] = system: Helicobacter pyroli; test: AHP: Antibacterial Activity Test Against Helicobacter pyroli (agar dilution MIC); assay type: cell-based, Helicobacter pyroli NCTC 11637; conditions: for MIC: Helicobacter, NCTC11637, 168 h, HP NCTC 11637, brucella agar with 5% horse blood, 7 days, read-out: AHP: minimum inhibitory concentration (MIC)
Method: Antibacterial Activity Test Against Helicobacter pyroli i) Meaning The minimum inhibitory concentration (MIC) against Helicobacter pyroli (microaerophilic gram-negative bacterium which is supposed to deeply involve in pathogenesis, relapse, and recrudescence of ulcer, referred to as "HP" in the following) is measured so as to find out compounds which have antimicrobial activity against Helicobacter pyroli. ii) Method MICs were determined by the agar dilution method. The stock culture (-80° C.) of HP NCTC 11637 was thawed and cultured on tripticase soy agar supplemented with 5% sheep blood at 37° C. in an atmosphere of 5% O2, 10% CO2, and 85% N2. Grown colonies were transferred to the same plate and precultured for 3 days under the same condition. […] 10 μl of the bacterial suspension for inoculation (about 10^3 cfu) was inoculated on this plate and cultured for 7 days under the same condition as that of preculture.

SMILES | WIS: ulcer formation inhibitory rate [1] | TAO: total acid output inhibitory rate [2] | VOL: gastric juice volume inhibitory rate [2] | inhibition at 10 µM [3] | AT: toxicity at single dose, 5 levels [4] | PD: change in gastric mucosal potential difference, 5 levels [5] | cytotoxicity at 4 h, 100 µM [6] | MIC [7] | antibacterial activity against Helicobacter pyroli ([7]; result in words)
CC(C)=CCC/C(C)=C/COc1ccc(C(=O)NCCN2CCCCC2)cc1 [Example 3] | 79% | 85% | 68% | 100% | 4 |  |  |  | 
CC(C)=CCC/C(C)=C/CC/C(C)=C/COc1ccc(C(=O)NCCN2CCCCC2)cc1 [Example 10] | 47% |  |  | 98% | 4 | 5 |  |  | 
CC(C)=CCC/C(C)=C/COc1ccc(C(=O)NCCN2CCCCC2)cc1OC/C=C(\C)CCC=C(C)C [Example 11] | 91% |  |  |  | 4 | 5 | 23% |  | 
COc1cc(C(=O)NCCN2CCCCC2)cc(OC)c1OCC=C(C)C [Example 27] | 82% |  |  |  |  | 5 | -11% |  | 
COc1cc(C(=O)NCCN2CCOCC2)cc(OC)c1OC/C=C(\C)CCC=C(C)C [Example 42] | 69% |  |  | 102% | 4 |  | 0% |  | 
COc1cc(C(=O)NCCN2CCOCC2)cc(OC)c1OC/C=C(/C)CCC=C(C)C [Example 43] | 41% |  |  |  | 4 | 5 | 10% |  | 
COc1cc(C(=O)NCCN2CCOCC2)cc(OC/C=C(\C)CCC=C(C)C)c1OC [Example 44] | 61% |  |  | 100% | 4 |  | 22% |  | 
CC(C)=CCC/C(C)=C/COc1ccc(C(=O)NCCN2CCN(CC(C)C)CC2)cc1 [Example 46] | 78% | 34% | 33% | 100% |  |  | 68% |  | 
CC(C)=CCC/C(C)=C/COc1ccc(C(=O)NCCN2CCN(c3nc4ccccc4s3)CC2)cc1 [Example 59] | 47% |  |  | 93% |  |  | 7% | < 3.13 µg/mL | having an antibacterial activity against Helicobacter pyroli
CC(C)Cc1cc(C(=O)NCCN2CCN(CC(C)C)CC2)ccc1OCc1ccc(F)cc1 [Example 62] | 77% |  |  | 102% | 3 |  |  | < 3.13 µg/mL | 
